Test results reported in article PMC7238241, “Lack of Correlation between In Vitro and In Vivo Studies on the Inhibitory Effects of (‒)-Sophoranone on CYP2C9 Is Attributable to Low Oral Absorption and Extensive Plasma Protein Binding of (‒)-Sophoranone” (Pharmaceutics, 2020).

Target: T1, CYP2A6 (Homo sapiens, UniProt P11509)
T1 construct: tissue Corning Life Sciences; host or cells: pooled human liver microsomes, 150 donors
T1 sequence (P11509 1-494): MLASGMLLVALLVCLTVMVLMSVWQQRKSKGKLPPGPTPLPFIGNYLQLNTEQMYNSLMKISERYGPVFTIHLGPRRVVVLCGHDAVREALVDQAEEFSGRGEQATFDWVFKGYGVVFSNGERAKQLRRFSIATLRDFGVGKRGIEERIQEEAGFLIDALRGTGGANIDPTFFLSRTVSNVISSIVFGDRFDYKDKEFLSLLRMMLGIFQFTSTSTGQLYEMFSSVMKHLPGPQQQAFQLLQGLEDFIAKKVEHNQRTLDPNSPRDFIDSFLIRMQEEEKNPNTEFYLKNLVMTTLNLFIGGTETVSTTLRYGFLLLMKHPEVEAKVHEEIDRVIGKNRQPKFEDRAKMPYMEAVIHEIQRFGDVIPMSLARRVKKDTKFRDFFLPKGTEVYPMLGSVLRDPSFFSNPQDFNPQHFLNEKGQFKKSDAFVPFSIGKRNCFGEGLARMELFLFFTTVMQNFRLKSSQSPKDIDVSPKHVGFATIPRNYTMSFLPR
Assay: Reversible CYP2A6 inhibition, cocktail assay (coumarin 7-hydroxylase) in human liver microsomes
Assay type: biochemical
Procedure: The inhibitory effects of SPN on CYP1A2, CYP2A6, CYP2B6, CYP2C8, CYP2C9, CYP2C19, CYP2D6, CYP2E1, and CYP3A4 were evaluated in pooled human liver microsomes through the use of specific CYP probe substrates (cocktail assay), as previously described with a slight modification. Concentrations of each CYP probe in Table 1 were used close to their reported Km values.
Briefly, a 90-µL incubation mixture, including pooled human liver microsomes (final concentration 0.1 mg/mL), 50 mM phosphate buffer (pH 7.4), each CYP-probe substrate cocktail set, and SPN (0–50 μM), was pre-incubated for 5 min at 37 °C. SPN was dissolved in methanol and spiked into the incubation mixture to a final concentration of 0.5% methanol. All P450-selective substrates (except coumarin due to solubility) were dissolved in methanol and serially diluted with methanol to the required concentrations, and the organic solvent was subsequently evaporated under a gentle stream of N2 gas to minimize the effects of organic solvents on CYP activities. On the other hand, coumarin dissolved in 50 mM phosphate buffer (pH 7.4) was directly added into the mixed tube. The reaction was initiated by adding 10-µL aliquot of NADPH-generating system (1.3 mM NADP^+, 3.3 mM glucose 6-phosphate, 3.3 mM MgCl2, and 0.4 unit/mL glucose-6-phosphate dehydrogenase) before 15 min incubation at 37 °C in a shaking water bath. […]
The IC50 values were calculated via nonlinear least-squares regression analysis from logarithmic plots of inhibitor concentration versus percentage of activity remaining after inhibition, using SigmaPlot (ver. 14.0; Systat Software Inc, Chicago, IL, USA). The Ki values were determined from the equations for a single substrate single inhibitor model and the software available in the SigmaPlot Enzyme Kinetics module. Competitive, non-competitive, uncompetitive, or mixed inhibition models were evaluated and ranked according to the best fit based on Akaike Information Criterion (AIC) values. […]

residual enzyme activity, CYP2A6 (at the highest tested concentration (50 μM)): greater than 80% | IC50 (human liver microsomes 0.1 mg/mL, cocktail assay, coumarin probe, n = 3, read-out: IC50 Values, CYP2A6): > 50 µM
SMILES: CC(C)=CCc1cc([C@@H]2CC(=O)c3ccc(O)c(CC=C(C)C)c3O2)cc(CC=C(C)C)c1O [SPN, (‒)-Sophoranone]
